Source: PMC5214846 (Structure (London, England : 1993), 2016)
Like-named read-outs stand apart in the source and are kept apart here.

Columns and labels:
[1] = Highest soluble concentration of long-chain alcohols
ELIC [2] = molecular target: T1, ELIC (Dickeya chrysanthemi, UniProt P0C7B7); assay: Functional measurements of Xenopus laevis oocytes expressing ELIC; conditions: for Modulation of ELIC at low agonist concentration (EC3) / Modulation of ELIC at EC20: representative traces; for Modulation of ELIC at EC20: agonist EC20
T1 sequence (P0C7B7 whole entry): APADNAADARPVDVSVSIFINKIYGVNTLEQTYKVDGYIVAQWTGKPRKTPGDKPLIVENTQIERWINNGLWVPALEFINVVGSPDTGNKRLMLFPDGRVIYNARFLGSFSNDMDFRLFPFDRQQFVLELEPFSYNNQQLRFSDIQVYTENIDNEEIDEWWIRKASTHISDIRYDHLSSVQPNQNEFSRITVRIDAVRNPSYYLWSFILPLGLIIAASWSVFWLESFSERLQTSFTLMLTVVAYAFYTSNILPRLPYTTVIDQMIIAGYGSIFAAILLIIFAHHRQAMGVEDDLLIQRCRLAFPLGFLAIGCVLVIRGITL

ELIC [3] = molecular target: T1, ELIC; conditions: cited from earlier work
ELIC-α1β3GABAAR = assay type: cell-based; conditions: for Modulation of ELIC-α1β3GABAAR at EC20: agonist EC20

CCCCCCCCCCO [n-decanol]
Highest soluble concentration [1]: ~ 0.3 mM | Inhibition of ELIC at highest soluble concentration (ELIC [2]; n-decanol ~0.3 mM, n-dodecanol ~0.02 mM, PPA-elicited current): much weaker inhibition than n-nonanol or n-hexanol

FC(F)OC(Cl)C(F)(F)F (stereo not drawn) [isoflurane]
Effect on ELIC (ELIC [3]; binding to the pore at 6′ and 13′ positions, ref Chen et al., 2015): inhibits

CCO [EtOH, ethanol]
Modulation of ELIC-α1β3GABAAR at low agonist concentration (EC3) (ELIC-α1β3GABAAR): potentiate | Modulation of ELIC-α1β3GABAAR at EC20 (ELIC-α1β3GABAAR): no inhibition | Modulation of ELIC at low agonist concentration (EC3) (ELIC [2]): inhibition | Modulation of ELIC at EC20 (ELIC [2]): strongly inhibit

CC(C)c1cccc(C(C)C)c1O [propofol]
Effect on ELIC (ELIC [3]; through a common TMD intra-subunit binding pocket, ref Kinde et al., 2016): inhibit

OCCBr [BrEtOH, 2-bromoethanol]
Modulation of ELIC-α1β3GABAAR at low agonist concentration (EC3) (ELIC-α1β3GABAAR): potentiate | Modulation of ELIC-α1β3GABAAR at EC20 (ELIC-α1β3GABAAR): some potentiation | Modulation of ELIC at low agonist concentration (EC3) (ELIC [2]): inhibition | Modulation of ELIC at EC20 (ELIC [2]): strongly inhibit
